Reference: patent US20110008261A1, “METHOD TO PRODUCE HYPERPOLARISED AMINO ACIDS AND AMINOSULPHONIC ACIDS” (GE HEALTHCARE LIMITED, priority 2008, published 2011)

Tests used:
[1] = Solid state polarisation after DNP, by solid state 13C-NMR; assay type: physicochemical; conditions: 3.35 T, 93.90 GHz
Protocol: The level of polarisation may for instance be determined by solid state NMR measurements of the NMR nucleus in the frozen hyperpolarised sample. For instance, if the NMR active nucleus in the hyperpolarised sample is ^13C, a solid state ^13C-NMR measurement is carried out. The solid state ^13C-NMR measurement preferably consists of a simple pulse-acquire NMR sequence using a low flip angle. The signal intensity of the hyperpolarised sample in the ^13C-NMR spectrum is compared with signal intensity of the sample in a ^13C-NMR spectrum acquired before the DNP polarisation process. The level of polarisation is then calculated from the ratio of the signal intensities of before and after polarisation.
The probe is inserted into the probe-retaining container, submerged in the liquid helium and irradiated with microwaves, preferably at a frequency of about 94 GHz at 200 mW. The level of polarisation may for instance be monitored by solid state NMR measurements of the NMR active nucleus in the frozen solution comprising the hyperpolarised sample. For instance, if the NMR active nucleus in the hyperpolarised sample is ^13C, a solid state ^13C-NMR measurement is carried out. The solid state ^13C-NMR measurement preferably consists of a simple pulse-acquire NMR sequence using a low flip angle. The signal intensity of the hyperpolarised sample in the ^13C-NMR spectrum is compared with signal intensity of the sample in a ^13C-NMR spectrum acquired before the DNP polarisation process. The level of polarisation is then calculated from the ratio of the signal intensities of before and after polarisation.
32.5 mg (0.258 mmol) of the ^13C1-alanine hydrochloride obtained in Example 1a was added to 42 mg of a stock solution in a micro test tube. The stock solution had been prepared by dissolving the DNP agent (trityl radical) tris(8-carboxy-2,2,6,6-(tetra(hydroxyethyl)-benzo-[1,2-4,5′]-bis-(1,3)-dithiole-4-yl)-methyl sodium salt which had been synthesised according to Example 7 of WO-A1-98/39277 and the paramagnetic metal ion (Gd-chelate of 1,3,5-tris-(N-(DO3A-acetamido)-N-methyl-4-amino-2-methylphenyl)-[1,3,5]triazinane-2,4,6-trione) which had been synthesised according to Example 4 of WO-A-2007/064226 in glycerol in such a way that a glycerol solution being 26 mM in trityl radical and 0.52 mM in Gd-chelate had been obtained. The resulting composition was sonicated to dissolve the ^13C1-alanine hydrochloride and produce a clear solution. […] The frozen solution was polarised under DNP conditions at 1.2 K in a 3.35 T magnetic field under irradiation with microwave (93.90 GHz). Polarisation was followed by solid state ^13C-NMR and the solid state polarisation was determined to be 40%.
^13C1-glutamine (45.5 mg, 0.30 mmol, Cambridge Isotopes) was weighted into a micro test tube and dissolved in 23.5 μl water and 25 μl aqueous NaOH (12 M). The mixture was sonicated and gently heated to produce a clear solution. To the solution was added 5.7 mg of an aqueous solution of tris(8-carboxy-2,2,6,6-(tetra(hydroxyethyl)-benzo-[1,2-4,5′]-bis-(1,3)-dithiole-4-yl)-methyl sodium salt (trityl radical; 139 μmol/g solution) and 2.1 mg of an aqueous solution of the Gd-chelate of 1,3,5-tris-(N-(DO3A-acetamido)-N-methyl-4-amino-2-methylphenyl)-[1,3,5]triazinane-2,4,6-trione) (paramagnetic metal ion; 14.5 μmol/g solution) The resulting composition was sonicated and gently heated to produce a clear solution. […] The sample cup was removed from the liquid nitrogen, 25 μl aqueous HCl (12 M) were added to the sample cup. […] The frozen solution was polarised under DNP conditions at 1.2 K in a 3.35 T magnetic field under irradiation with microwave (93.90 GHz). Polarisation was followed by solid state ^13C-NMR and the solid state polarisation was determined to be 35%.

[2] = Liquid state polarisation after liquefaction and neutralization, by liquid state 13C-NMR at 400 MHz; assay type: physicochemical
Protocol: In a similar way, the level of polarisation for liquid hyperpolarised samples may be determined by liquid state NMR measurements of the NMR active nucleus in the liquid hyperpolarised sample. Again the signal intensity of the liquid hyperpolarised sample is compared with the signal intensity of the liquid sample before polarisation. The level of polarisation is then calculated from the ratio of the signal intensities of before and after polarisation.
After 150 minutes of dynamic nuclear polarisation, the obtained frozen polarised solution was dissolved in a dissolution medium containing 6 ml of a phosphate buffer (20 mM, pH 6.8, 100 mg/l EDTA), aqueous NaOH (27 μl 12 M solution, 1 eq) and 30 mg NaCl.
After 120 minutes of dynamic nuclear polarisation, the obtained frozen polarised solution was dissolved in a dissolution medium containing 6 ml phosphate buffer (40 mM, pH 7, 100 mg/l EDTA, 0.9% NaCl).

[3] = basic preparation according to Example 2, DNP at 1.2 K
[4] = basic preparation according to Example 2, after liquefaction and neutralization
[5] = acidic preparation according to Example 1, DNP at 1.2 K
[6] = acidic preparation according to Example 1, after liquefaction and neutralization

Row | SMILES | Solid state polarisation [1, 3] [%] | Liquid state polarisation [2, 4] [%] | Solid state polarisation [1, 5] [%] | Liquid state polarisation [2, 6] [%] | further results
1 | NC(=O)CCC(N)[13C](=O)[O-].[Na+] (stereo not drawn) [Sodium ^13C1-2-amino-4-carbamoyl-butanoate] | – | – | – | – | Solid state polarisation ([1]; Example 2a, 4 M aqueous, 11 mM trityl radical, 0.4 mM Gd3+, 1.2 K): 35%
2 | C[C@H](N)[13C](=O)O.Cl [^13C1-alanine hydrochloride, ^13C1-alaninium chloride] | – | – | – | – | Solid state polarisation ([1]; Example 1b, 4 M in glycerol, 17 mM trityl radical, 0.9 mM Gd3+, 1.2 K): 40%
3 | CC(N)[13C](=O)O (stereo not drawn) [^13C1-alanine] | 18 | 16 | – | – | Liquid state polarisation ([2]; Example 1c, after 150 minutes DNP, dissolved in phosphate buffer/NaOH, final pH 6.8, 400 MHz): 35%
4 | N[C@@H](CS)[13C](=O)O [^13C1-cysteine] | – | – | 25 | 17 | –
5 | NC(=O)CC[C@H](N)[13C](=O)O [^13C1-glutamine] | – | – | – | 6 | Liquid state polarisation ([2]; Example 2b, after 120 minutes DNP, dissolved in phosphate buffer, final pH 7, 400 MHz): 30%
6 | NC[13C](=O)O [^13C1-glycine] | 19 | 18 | 16 | 16 | –
7 | CC(C)C[C@H](N)[13C](=O)O [^13C1-leucine] | 35 | 21 | – | – | –
8 | CSCCC(N)[13C](=O)O (stereo not drawn) [^13C1-methionine] | – | – | 41 | 26 | –
9 | O=[13C](O)C1CCCN1 (stereo not drawn) [^13C1-proline] | – | – | – | 16 | –
